Test results taken from PMC6384650, “Phenolic Compounds of Catalpa speciosa, Taxus cuspidata, and Magnolia acuminata have Antioxidant and Anticancer Activity” (Molecules, 2019).
≈ marks a conversion by molar mass, not a printed value. Counter-ions that a name gives are not always drawn.

Assays:
[1] = system: HT-29 cells (colon adenocarcinoma); assay: MTT antiproliferative assay, HT-29; assay type: cell-based; conditions: 2 days incubation; for IC50: Homo sapiens, HT-29, 48 h, read-out: In vitro antiproliferative activity IC50, HT-29
Experimental: (§1) Fresh bark (0.25 g) was dried at 35 °C until a constant weight was obtained. The samples were ground and then dissolved in 3 mL methanol (99%) for 1 h in the dark at 25 °C. Bark solutions were centrifuged for 5 min at 10,000 rpm (7000 × g) and the supernatant was obtained (~2.7 mL). The samples were passed through a 0.45 μm polytetrafluroethylene (PTFE) nylon filter and then stored at −80 °C. Analytical grade chemicals (Sigma Aldrich, Germany) were used in the bioassays. The cancer cell lines, including cervical adenocarcinoma (HeLa), breast adenocarcinoma (MCF-7), T-cell lymphoblast like (Jurkat), urinary bladder carcinoma (T24), and colon adenocarcinoma (HT-29), were obtained from the American Type Culture Collection (ATCC).
(§2) The antiproliferative activity of bark extracts was examined in different cancer cells lines (HeLa, MCF-7, Jurkat, HT-29, and T24) and in normal cells (HEK-293) by using a modified 3-(4,5-dimethylthiazol-2-yl)-2,5-diphenyltetrazolium bromide (MTT) method. The cells were grown in 75 cm^2 flasks in MEM supplemented with 10% FBS, 17.8 mM NaHCO3, 0.1 mM non-essential amino acids, and 1 mM sodium pyruvate. They were seeded into 96-well plates at a density of 4 × 10^−4 per well, left to stand in 270 µL of medium, and incubated in an atmosphere of 37 °C and 5% CO2. Sterilin-filtered leaf extracts were added to the culture media in microtiter plates. Five doses of bark extracts were used at final concentrations of 50, 100, 200, 300, and 400 µg/mL in culture medium. Untreated cells were considered used as negative controls and vinblastine sulfate and taxol treatment were used as the positive controls. After incubation of the culture medium for 2 days at 37 °C and 5% CO2, phosphate buffer saline (PBS) washes were performed to remove extract traces and the medium supplied was 12 mM MTT dissolved in PBS. Subsequently, 0.04 N HCl dissolved in isopropanol was mixed in each well, left to stand for 40 min, and the absorbance at 570 nm was determined by using a microplate reader (Thermo Fisher Scientific, Waltham, Massachusetts, USA). The percentage inhibition of antiproliferation activity was calculated in triplicate:
(§3) % Inhibition = (Abs.570 nm control—Abs.570 nm sample)/Abs.570 nm control × 100. Subsequently, IC50 values were obtained by plotting the percentage of cell viability against the extract concentration and expressed in µg/mL.

[2] = system: HeLa cells (cervical adenocarcinoma); assay: MTT antiproliferative assay, HeLa; assay type: cell-based; conditions: 2 days incubation; for IC50: Homo sapiens, HeLa, 48 h, read-out: In vitro antiproliferative activity IC50, HeLa
Experimental: as §1, §2, §3

[3] = system: T24 cells (urinary bladder carcinoma); assay: MTT antiproliferative assay, T24; assay type: cell-based; conditions: 2 days incubation; for IC50: Homo sapiens, T-24, 48 h, read-out: In vitro antiproliferative activity IC50, T24
Experimental: as §1, §2, §3

[4] = system: Jurkat cells (T-cell lymphoblast like); assay: MTT antiproliferative assay, Jurkat; assay type: cell-based; conditions: 2 days incubation; for IC50: Homo sapiens, Jurkat, 48 h, read-out: In vitro antiproliferative activity IC50, Jurkat
Experimental: as §1, §2, §3

HEK-293 cells = assay: MTT antiproliferative assay, normal HEK-293 cells; assay type: cell-based; conditions: 2 days incubation; for IC50: Homo sapiens, HEK293, 48 h, read-out: In vitro antiproliferative activity IC50, HEK-293
Experimental: as §2, §3

[5] = system: MCF-7, HeLa, Jurkat, T24, and HT-29 cells; assay: MTT antiproliferative assay, cancer cell line panel; assay type: cell-based; conditions: most cancer cells
Experimental: The samples were ground and then dissolved in 3 mL methanol (99%) for 1 h in the dark at 25 °C. Bark solutions were centrifuged for 5 min at 10,000 rpm (7000 × g) and the supernatant was obtained (~2.7 mL). The samples were passed through a 0.45 μm polytetrafluroethylene (PTFE) nylon filter and then stored at −80 °C. Analytical grade chemicals (Sigma Aldrich, Germany) were used in the bioassays. The cancer cell lines, including cervical adenocarcinoma (HeLa), breast adenocarcinoma (MCF-7), T-cell lymphoblast like (Jurkat), urinary bladder carcinoma (T24), and colon adenocarcinoma (HT-29), were obtained from the American Type Culture Collection (ATCC). […] The cells were grown in 75 cm^2 flasks in MEM supplemented with 10% FBS, 17.8 mM NaHCO3, 0.1 mM non-essential amino acids, and 1 mM sodium pyruvate. […] Sterilin-filtered leaf extracts were added to the culture media in microtiter plates. […] Untreated cells were considered used as negative controls and vinblastine sulfate and taxol treatment were used as the positive controls. After incubation of the culture medium for 2 days at 37 °C and 5% CO2, phosphate buffer saline (PBS) washes were performed to remove extract traces and the medium supplied was 12 mM MTT dissolved in PBS. Subsequently, 0.04 N HCl dissolved in isopropanol was mixed in each well, left to stand for 40 min, and the absorbance at 570 nm was determined by using a microplate reader (Thermo Fisher Scientific, Waltham, Massachusetts, USA). The percentage inhibition of antiproliferation activity was calculated in triplicate: % Inhibition = (Abs.570 nm control—Abs.570 nm sample)/Abs.570 nm control × 100. Subsequently, IC50 values were obtained by plotting the percentage of cell viability against the extract concentration and expressed in µg/mL.

[6] = system: MCF-7 cells (breast adenocarcinoma); assay: MTT antiproliferative assay, MCF-7; assay type: cell-based; conditions: 2 days incubation; for IC50: Homo sapiens, MCF7, 48 h, read-out: In vitro antiproliferative activity IC50, MCF-7
Experimental: as §1, §2, §3

[7] = β-carotene-linoleic acid assay; conditions: absorbance 470 nm
Experimental: (§4) The DPPH and β-carotene-linoleic acid assays were used in the Faculty of Food and Agricultural Sciences, King Saud University to determine the antioxidant activities of bark extract. For the DPPH assay, the samples were incubated for 30 min and the absorbance of the samples at 517 nm was measured. In the β-carotene-linoleic acid assay, the absorbance of the samples at 470 nm was measured. […] A standard antioxidant (butylated hydroxytoluene, BHT) was used as a positive control and the inhibition by the concentration of each sample was compared with that of the BHT and blank. The antioxidant activities were repeated twice in duplicates.

[8] = DPPH free radical scavenging assay; conditions: 30 min incubation, absorbance 517 nm
Experimental: as §4

cancer cells = assay: Apoptotic cell population by flow cytometry (Annexin V); assay type: cell-based; conditions: treatment at IC50, 24/48 h, versus untreated control
Experimental: Flow cytometry (FAC Scan, Becton Dickinson, Iowa, USA) was used to measure the apoptotic cell population. […] The cells were detached by using trypsin (0.25%) in Hank’s balanced salt solution (Thermo Fisher Scientific, Berlin, Germany). For staining the cells, the Annexin V apoptosis detection kit (Sigma, St. Louis, MO, USA) was used. Briefly, the cells were incubated in the dark at 37 °C for 15 min and washed with cold PBS, and the apoptotic populations were shown by the flow cytometer in quadrants: Lower left (viable cells), upper left (necrotic cells), lower right (early apoptotic cells), and upper right (late apoptotic cells).

Compound | IC50 [1] [µg/mL] | IC50 [2] [µg/mL] | IC50 [3] [µg/mL] | IC50 [4] [µg/mL] | IC50 (HEK-293 cells) [µg/mL] | In vitro antiproliferative activity IC50, HT-29 [1] [µg/mL] | Antiproliferative activity against cancer cells (in words) [5] | In vitro antiproliferative activity IC50, MCF-7 [6] [µg/mL] | In vitro antiproliferative activity IC50, HeLa [2] [µg/mL] | In vitro antiproliferative activity IC50, T24 [3] [µg/mL] | In vitro antiproliferative activity IC50, Jurkat [4] [µg/mL] | In vitro antiproliferative activity IC50, HEK-293 (HEK-293 cells) | IC50 [6] [µg/mL] | also measured
CC[C@]1(O)C[C@@H]2CN(CCc3c([nH]c4ccccc34)[C@@](C(=O)OC)(c3cc4c(cc3OC)N(C)[C@H]3[C@@](O)(C(=O)OC)[C@H](OC(C)=O)[C@]5(CC)C=CCN6CC[C@]43[C@@H]65)C2)C1 [Vinblastine sulfate] | 21 ± 0.1 | 2.7 ± 0.06 | 65.7 ± 2.1 | 0.1 ± 0.09 | 50.1 ± 2.3 | – | – | – | – | – | – | – | – | –
Hydroxycaffeic acid | – | – | – | – | – | 113.15 ± 2.9 | notable antiproliferative activity against most cancer cells | 58.11 ± 0.9 | 65.31 ± 2.4 | 176.12 ± 3.6 | 63.09 ± 1.4 | ˃400 µg/mL | – | –
CC(=O)O[C@H]1C(=O)[C@@]2(C)[C@H]([C@H](OC(=O)c3ccccc3)[C@]3(O)C[C@H](OC(=O)[C@H](O)[C@@H](NC(=O)c4ccccc4)c4ccccc4)C(C)=C1C3(C)C)[C@]1(OC(C)=O)CO[C@@H]1C[C@@H]2O [Taxol] | – | – | – | – | – | – | – | – | – | – | – | – | 0.09 ± 0.009 (≈ 0.105 µM) | –
O=C(O)c1ccc(O)c(O)c1 [Protocatechuic acid, 3,4-dihydroxybenzoic acid] | 95.3 ± 3.3 (≈ 619 µM) | 39.1 ± 2.3 (≈ 254 µM) | 176 ± 2.1 (≈ 1140 µM) | 47.4 ± 2.1 (≈ 307 µM) | > 400 | – | notable antiproliferative activity against most cancer cells | – | – | – | – | – | 19 ± 2.1 (≈ 123 µM) | –
Cc1cc(C(C)(C)C)c(O)c(C(C)(C)C)c1 [BHT, butylated hydroxytoluene] | – | – | – | – | – | – | – | – | – | – | – | – | – | β-Carotene-Linoleic Acid Assay (IC50) [7]: 3.2 ± 0.1c µg mL^−1; DPPH Free Radical Scavenging Activity (IC50) [8]: 2.9 ± 0.1c µg mL^−1
COc1cc(/C=C/C(=O)O)ccc1O [Ferulic acid] | – | – | – | – | – | 126.26 ± 4.4 | notable antiproliferative activity against most cancer cells | 43.85 ± 1.3 | 51.73 ± 3.5 | 227.26 ± 5.1 | 39.11 ± 2.3 | ˃400 µg/mL | – | –
O.Oc1cc(O)c2c(c1)O[C@H](c1ccc(O)c(O)c1)[C@@H](O)C2 [Catechin] | – | – | – | – | – | 96.16 ± 1.5 | notable antiproliferative activity against most cancer cells | 17.64 ± 1.8 | 36.48 ± 1.2 | 183.28 ± 4.3 | 38.16 ± 0.7 | ˃400 µg/mL | – | Accumulation of necrotic, early and late apoptotic cells (cancer cells): high accumulation of early and late apoptotic cells
CC[C@]1(O)C[C@H]2CN(CCc3c([nH]c4ccccc34)[C@@](C(=O)OC)(c3cc4c(cc3OC)N(C=O)[C@H]3[C@@](O)(C(=O)OC)[C@H](OC(C)=O)[C@]5(CC)C=CCN6CC[C@]43[C@@H]65)C2)C1 [Vincristine] | 47.3 ± 0.2 (≈ 57.3 µM) | 8.5 ± 0.1 (≈ 10.3 µM) | 89.8 ± 2.5 (≈ 109 µM) | 0.4 ± 0.05 (≈ 0.485 µM) | 78.3 ± 1.6 (≈ 94.9 µM) | – | – | – | – | – | – | – | 4.63 ± 1.8 (≈ 5.61 µM) | –
